# Source: patent publication US6958335B2, “Treatment of gastrointestinal stromal tumors” (Novartis AG, priority 2000, dated 2005)
# Like-named read-outs stand apart in the source and are kept apart here.
# Tests used:
# [1] = tested on: unresectable and/or metastatic malignant gastrointestinal stromal tumors (GIST)
# Procedure: A phase 2, open-label, randomized multinational study was conducted in patients with unresectable and/or metastatic malignant gastrointestinal stromal tumors (GIST). […] The primary evidence of efficacy was based on objective response rates, and the time to response, duration of response, time to treatment failure and survival were also evaluated. Tumors were required to be measurable in at least one site of disease, and response characterization based on Southwestern Oncology Group (SWOG) criteria.
# [2] = during therapy
# Procedure: (§1) Treatment toxicity was assessed at follow-up visits performed at 2 to 4 week intervals, and blood cell counts and blood chemistry were analysed at 1 to 2 week intervals. Treatment response was assessed with dynamic MRI scans, ^18F-fluorodeoxyglucose (FDG) positron emission tomography (PET) examinations, and cutting needle biopsies from a liver metastasis. Dynamic MRI was performed with a 1.5T Magnetom Vision (Siemens, Erlangen, Germany). Fat-suppressed T1-weighted breathhold gradient echo transaxial images were obtained both before and after intravenous contrast medium injection (0.1 mmol/kg gadolinium-DOTA; Dotarem, Guerbet, France). The enhancement pattern was established using sequential imaging over 5 minutes, and delayed scanning was performed after 10 minutes.
# [3] = tested on: unresectable metastatic GIST; details: for total tumour size (tumour area of 8 large measurable liver metastases, MRI): 112.5 cm^2 before treatment
# Procedure: Seven cycles of IADIC (ifosfamide, doxoribicin, and dacarbazine) were given from November 1998 to March 1999 for multiple liver metastases. […] They were subsequently treated between April 1999 and February 2000 with an experimental regimen consisting of thalidomide 400 mg once daily and interferon alpha 0.9 MU T.I.D. s.c. to control persisting liver disease.
# as §1, with “minutes. FDG PET was done using an 8-ring ECAT 931/08 device (Siemens-CTI Corp. Knoxville, Tenn.). The FDG dose given varied between 355 to 375 MBq.” for “minutes.”
# GIST = tested on: GIST
# Text: At the priority date of the present patent application a clinical study with more GIST patients was being conducted analogously to the study described in Example 1.
# [4] = among the 61 patients with stable disease
smiles,measurement,setting,value
CS(=O)(=O)O.Cc1ccc(NC(=O)c2ccc(CN3CCN(C)CC3)cc2)cc1Nc1nccc(-c2cccnc2)n1 [SALT I],Best response: Complete response,[1]; 400 mg (N = 73),0 n (%)
same,Best response: Not evaluable,[1]; 400 mg (N = 73),3 (4.1) n (%)
same,Best response: Partial response,[1]; 400 mg (N = 73),27 (37.0) n (%)
same,Best response: Progressive disease,[1]; 400 mg (N = 73),10 (13.7) n (%)
same,Best response: Stable disease,[1]; 400 mg (N = 73),33 (45.2) n (%)
same,Best response: Unknown,[1]; 400 mg (N = 73),0 n (%)
same,differences between dose groups in efficacy parameters,[1]; 400 mg vs 600 mg,could not be observed
same,Best response: Complete response,[1]; 600 mg (N = 74),0 n (%)
same,Best response: Not evaluable,[1]; 600 mg (N = 74),4 (5.4) n (%)
same,Best response: Partial response,[1]; 600 mg (N = 74),32 (43.2) n (%)
same,Best response: Progressive disease,[1]; 600 mg (N = 74),8 (10.8) n (%)
same,Best response: Stable disease,[1]; 600 mg (N = 74),28 (37.8) n (%)
same,Best response: Unknown,[1]; 600 mg (N = 74),2 (2.7) n (%)
same,Best response: Complete response,[1]; All doses (N = 147),0 n (%)
same,Best response: Not evaluable,[1]; All doses (N = 147),7 (4.8) n (%)
same,Best response: Partial response,[1]; All doses (N = 147),59 (40.1) n (%)
same,Best response: Stable disease,[1]; All doses (N = 147),61 (41.5) n (%)
same,Best response: Unknown,[1]; All doses (N = 147),2 (1.4) n (%)
same,patients with reduction in tumor size by more than 25% on at least one assessment,[1]; all 147 patients,118 patients
same,share of patients with reduction in tumor size by more than 25% on at least one assessment,[1]; all 147 patients,80%
same,patients with partial response not yet confirmed by a second assessment,[1]; [4],28 patients
same,patients with reduction in tumor size by more than 25%,[1]; [4],19 patients
same,patients with significant tumor shrinkage among stable disease,[1]; [4],47 patients
same,estimate of patients free from treatment failure,"[1]; at 12 weeks, interval censoring",80%
same,estimate of patients free from treatment failure,"[1]; at 12 weeks, without interval-censoring",81%
same,estimate of patients free from treatment failure,"[1]; at 24 weeks, interval censoring",66%
same,estimate of patients free from treatment failure,"[1]; at 24 weeks, without interval-censoring",67%
same,median time to the onset of response,[1]; entire study population,12 weeks
same,relapse among patients with confirmed response,[1]; interim analysis,No patients with confirmed response had relapsed
same,median duration of response,"[1]; interim analysis, no interval censoring",approximately 14 weeks
same,median time to treatment failure,"[1]; interval censoring, pooled population, based on only two patients, not reliable",54 weeks
same,"drug-related liver, renal or cardiac toxicity",[2],"No drug-related liver, renal or cardiac toxicity was observed"
same,metabolic response in tumour (PET imaging),"[3]; 400 mg daily orally, within 1 month",complete metabolic response
same,decrease of total tumour size (MRI),[3]; 1 month,52%
same,"total tumour size (tumour area of 8 large measurable liver metastases, MRI)",[3]; 1 month,54.3 cm^2
same,decrease of total tumour size (MRI),[3]; 2 months,63%
same,"total tumour size (tumour area of 8 large measurable liver metastases, MRI)",[3]; 2 months,41.5 cm^2
same,decrease of total tumour size (MRI),[3]; 2 weeks after starting,41%
same,"total tumour size (tumour area of 8 large measurable liver metastases, MRI)",[3]; 2 weeks after starting,66.9 cm^2
same,decrease of total tumour size (MRI),[3]; 4 months,68%
same,"total tumour size (tumour area of 8 large measurable liver metastases, MRI)",[3]; 4 months,36.2 cm^2
same,decrease of total tumour size (MRI),[3]; 5.5 months,71%
same,"total tumour size (tumour area of 8 large measurable liver metastases, MRI)",[3]; 5.5 months,32.5 cm^2
same,FDG uptake in PET,[3]; PET 1 month after starting,no abnormal FDG uptake was present in the liver
same,FDG uptake in PET at the sites of liver metastases,[3]; PET 2 months after starting,less FGD uptake than the surrounding liver parenchyma
same,World Health Organization (WHO) performance status,"[3]; during therapy, improved from 1 before",0
same,new lesions,[3]; follow-up MRI on treatment,No new lesions appeared
same,liver metastases that disappeared,"[3]; of the 28 liver metastases, follow-up MRI on treatment",6
same,pattern of contrast enhancement of tumour by dynamic MRI,[3]; within 2 weeks after starting,decreased dramatically
same,reduction in patients with partial response,GIST; 8 patients,50-66%
same,reduction in patients with stable disease,GIST; 18 patients,4-42%
same,patients with partial response,GIST; of 27 evaluated patients,8 patients
same,patients with stable disease,GIST; of 27 evaluated patients,18 patients
same,patients with progression of the disease,"GIST; of 27 evaluated patients, study not finished",1 patient
